From paper PMC11272598, “RG7774 (Vicasinabin), an orally bioavailable cannabinoid receptor 2 (CB2R) agonist, decreases retinal vascular permeability, leukocyte adhesion, and ocular inflammation in animal models” (Frontiers in Pharmacology, 2024) come the findings set out here.

Data set [1] can be described thus: Parallel artificial membrane permeability assay (PAMPA). In kind it is physicochemical. The procedure: A 96-well microtiter plate was filled with aqueous buffer (typically 0.05 M Tris, pH 7.4, or 0.05 M phosphate, pH 6.5) and covered with a filter plate in a sandwich construction. The hydrophobic filter material (Durapore/Millipore; pore size 0.22–0.45 μm) covering the first 48 wells (sample) was impregnated with 1%–20% lecithin dissolved in dodecane, hexadecane, and 1,9-decadiene. The filter cover for the remaining 48 wells (reference) was wetted with 4–5 μL of a 50% (v/v) methanol/buffer solution. The transfer of RG7774 and reference substances from the donor compartment, through the lipid-infused artificial membrane, into the acceptor compartment was initiated by transferring 100–200 μL of a 250 or 500 μM stock solution to filter plates covering the sample and reference wells, respectively. The maximum DMSO content of the stock solutions was 5%. The permeation coefficient (Peff) was determined as previously described by Kansy et al. 1998 [3].

In data set [2] the test system is LPS-induced vascular leakage. Nature of the data set: LPS-induced vascular permeability in mice with EIU (fluorophotometry). In kind it is in vivo, C57Bl6/J mice. The procedure:
Twenty-four female C57Bl6/J mice, 10 weeks old and weighing 18–20 g (Charles River, Sulzfeld, Germany) were housed in individually ventilated GM500 cages (Tecniplast, Pontremoli, Italy) with a maximum density of n = 4 mice with the same litter and sex. The room was kept at 20°C–24°C with 50%–60% humidity and a 12/12 h light-dark cycle. Animals were held on a standard mouse diet with ad libitum access to food and water.
Mice were anesthetized with isoflurane 3% in 100% O2, a drop of 1% Novesin 0.4% (Omnivision, Pucheim, Germany) and a drop of Tropicamide 1% w/v (Bausch + Lomb Incorporated, Kingston, United Kingdom). Eyes were subsequently cleaned with povidone iodine 5% Ophthalmic Prep Solution (Alcon, Geneva, Switzerland) and were immediately pre-punctured with a 30-gauge needle. Both eyes were injected with a single 1 µL IVT injection of 1 ng LPS (Sigma-Aldrich, St. Louis, MO, United States) or a single injection of Dulbecco’s phosphate buffered saline (PBS) (Fisher Scientific, Schwerte, Germany) (vehicle control) using a Nanofil syringe connected to a 34-gauge needle.
Vehicle solution [w/w] was prepared using 0.1% hydroxyethyl cellulose, 1.0% polysorbate 80, 0.18% methylparaben, and 0.02% propylparaben in 10 mM citrate (pH 6.0). RG7774 (0.6 and 2.0 mg/mL) was added to freshly prepared vehicle, stirred on a magnetic stirrer for at least 15 min, and a volume of 5 mL/kg was administered directly to the stomach of each EIU mouse using a 1 mL syringe with an oral gavage needle. Gavage was performed twice daily (6 mg/kg/day BID and 20 mg/kg/day BID) on the evening and morning prior to LPS injection, on the evening after LPS injection, and on the morning before fluorophotometry.
Mice were anesthetized 24 h after receiving LPS or vehicle control using subcutaneous (SC) injections of fentanyl 0.05 mg/kg, medetomidine 0.5 mg/kg, and midazolam 5 mg/kg. […] Fundus infrared and fundus fluorescein angiography (FFA) images of both eyes were recorded 30 min later using optical coherence tomography (OCT)/FFA (Spectralis HRA-OCT, Heidelberg Engineering, Heidelberg, Germany) with a 55° lens focused on the optic nerve with the optic disc in the center of the image to obtain sharp images of the fundus. […] The supernatant (10 µL) was diluted in 990 µL PBS in a microcuvette (PS Micro Photometer Cuvette 2 mL, 10 mm × 10 mm × 45 mm; LP Italiana, Milan, Italy) and samples were analyzed in duplicate using the FM-2 Fluorotron (450–490 nm excitation; 520–600 nm emission detection). […]
To quantify fluorotron measurements, raw files were generated, exported as txt. files, and plotted using Microsoft Excel. The average area under the curve (AUC) was calculated for 5 steps in each of the regions of the scans corresponding to retina, vitreous, and anterior chamber peaks. […]

In data set [3] the target is hERG (Homo sapiens, UniProt Q12809). Nature of the data set: hERG inhibition. From the text:
TABLE 2 Physicochemical and ADMET profile for RG7774.
In general terms: hERG is a cardiac potassium channel; its block is linked to QT prolongation.

The target in data set [4] is T1, human CB2R (Homo sapiens, UniProt P34972).
T1 construct: bgal (beta-galactosidase fragment of the PathHunter system); host or cells: CHO-K1
Nature of the data set: PathHunter β-arrestin recruitment assay in CHO cells. In kind it is cell-based. The procedure:
Assays were carried out using the PathHunter hCB2_bgal CHOK1 β-arrestin recruitment assay kit (DiscoveRx, Fremont, CA, United States) as previously described ([Soethoudt et al., 2017]). A total of 5,000 cells per well were seeded in 384-well plates (PerkinElmer, Waltham, MA, United States) containing 20 μL cell culture medium and incubated for 16–18 h at 37°C in 5% CO2. Cells were stimulated with RG7774 and incubated for 1.5 h at 37°C in 5% CO2. As the RG7774 stock solution was 100% DMSO, the final concentration of DMSO per assay point was diluted to 0.1%. PathHunter Detection mixture was used to determine β-galactosidase enzyme activity according to the manufacturer’s protocol. Detection mixture (12 µL per well) was added, and the plate was incubated for 1 h in the dark at RT. Chemiluminescence (indicated as relative light units) was measured on an EnVision multilabel plate reader (PerkinElmer, Waltham, MA, United States).

Sequence of hERG (Q12809 whole entry): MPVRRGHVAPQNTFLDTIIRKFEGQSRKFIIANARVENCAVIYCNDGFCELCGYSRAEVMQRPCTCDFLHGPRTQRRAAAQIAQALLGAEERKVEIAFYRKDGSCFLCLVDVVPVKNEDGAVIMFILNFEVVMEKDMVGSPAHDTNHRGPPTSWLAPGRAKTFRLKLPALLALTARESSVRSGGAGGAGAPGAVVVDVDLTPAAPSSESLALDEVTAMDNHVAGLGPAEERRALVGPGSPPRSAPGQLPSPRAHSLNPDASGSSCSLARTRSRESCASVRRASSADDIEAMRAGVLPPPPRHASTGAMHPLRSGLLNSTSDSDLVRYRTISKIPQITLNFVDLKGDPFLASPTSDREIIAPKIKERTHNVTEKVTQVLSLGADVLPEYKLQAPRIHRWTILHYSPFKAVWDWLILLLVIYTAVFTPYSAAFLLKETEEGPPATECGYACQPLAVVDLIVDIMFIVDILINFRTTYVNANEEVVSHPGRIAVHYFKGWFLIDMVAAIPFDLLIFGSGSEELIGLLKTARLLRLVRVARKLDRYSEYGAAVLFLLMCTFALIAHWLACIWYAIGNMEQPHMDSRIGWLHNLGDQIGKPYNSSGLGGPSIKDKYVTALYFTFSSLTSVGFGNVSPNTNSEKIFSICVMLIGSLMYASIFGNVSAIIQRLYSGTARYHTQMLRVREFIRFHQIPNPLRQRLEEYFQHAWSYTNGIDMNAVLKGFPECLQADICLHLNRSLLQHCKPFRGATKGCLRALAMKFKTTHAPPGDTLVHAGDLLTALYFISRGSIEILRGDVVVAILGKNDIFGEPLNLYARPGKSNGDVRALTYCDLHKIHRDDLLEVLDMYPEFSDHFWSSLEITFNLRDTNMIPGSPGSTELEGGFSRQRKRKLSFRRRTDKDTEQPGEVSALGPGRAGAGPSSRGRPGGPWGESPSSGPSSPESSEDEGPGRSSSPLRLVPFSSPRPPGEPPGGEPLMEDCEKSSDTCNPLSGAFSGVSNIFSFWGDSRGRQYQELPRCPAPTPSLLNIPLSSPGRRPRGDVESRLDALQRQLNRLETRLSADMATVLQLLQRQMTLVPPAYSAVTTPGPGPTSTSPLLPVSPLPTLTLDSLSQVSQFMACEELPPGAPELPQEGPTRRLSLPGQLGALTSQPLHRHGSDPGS
T1 sequence (P34972 whole entry, the tested form may be a part): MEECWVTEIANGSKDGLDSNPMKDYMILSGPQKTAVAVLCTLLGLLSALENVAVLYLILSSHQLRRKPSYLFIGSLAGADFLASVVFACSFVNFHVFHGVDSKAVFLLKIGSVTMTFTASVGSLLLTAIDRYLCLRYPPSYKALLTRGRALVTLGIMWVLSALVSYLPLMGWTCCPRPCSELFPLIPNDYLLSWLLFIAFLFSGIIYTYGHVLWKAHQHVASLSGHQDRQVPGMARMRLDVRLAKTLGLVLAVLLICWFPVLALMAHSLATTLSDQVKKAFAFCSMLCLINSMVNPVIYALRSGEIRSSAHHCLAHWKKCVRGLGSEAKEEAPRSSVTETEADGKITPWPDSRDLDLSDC

In the case of `Cn1nnnc1Cn1nnc2c(N3CC[C@H](O)C3)nc(C(C)(C)C)nc21` [RG7774, (S)-1-(5-tert-butyl-3-[(1-methyl-1H-tetrazol-5-yl)methyl]-3H-[1,2,3]triazolo[4,5-d]pyrimidin-7-yl)pyrrolidin-3-ol], in data set [1], the “PAMPA P eff” value is 9.7 10^−6 cm s^−1, the PAMPA acceptor compartment is on record as 23%, the PAMPA donor compartment came to 59% and the PAMPA membrane is 18%. Besides, in data set [2] (6 mg/kg/day oral BID), the “reduction of LPS-induced vascular leakage in the retina versus vehicle control” value came to 102% and the “reduction of LPS-induced vascular leakage in the vitreous” value came out at 74%. Also, in data set [2] (20 mg/kg/day oral BID), the “reduction of LPS-induced vascular leakage in the retina versus vehicle control” value came to 106% and the “reduction of LPS-induced vascular leakage in the vitreous” value came to 76%. The compound also registered an IC50 in data set [3] above 20000 nM. The compound also had an EC50 in data set [4] of 99.7 ± 5.72 nM.

By IC50 is commonly meant the midpoint of a concentration-inhibition curve. Lower therefore signals inhibition by little substance. The EC50 is the concentration at which the effect is half-maximal. A higher EC50 goes with a less potent agent.
